Results on five molecules are retold here after publication PMC2600596 (European journal of pharmacology, 2008).

SMILES strings stand for the structures.

For assay [1], the target named is T1, hMOR (human mu opioid receptor) (Homo sapiens, UniProt P35372). Type of assay: cell-based.
Assay [2] has as its target T1, hMOR (human mu opioid receptor). Type of assay: binding.
The target of a further assay is hMOR. The conditions noted are these: pH 7.5; cited from earlier work.
The next assay deals with mu opioid receptor. The format is binding. The conditions noted are these: whole CHO cells, data not shown.

T1 sequence (P35372 whole entry): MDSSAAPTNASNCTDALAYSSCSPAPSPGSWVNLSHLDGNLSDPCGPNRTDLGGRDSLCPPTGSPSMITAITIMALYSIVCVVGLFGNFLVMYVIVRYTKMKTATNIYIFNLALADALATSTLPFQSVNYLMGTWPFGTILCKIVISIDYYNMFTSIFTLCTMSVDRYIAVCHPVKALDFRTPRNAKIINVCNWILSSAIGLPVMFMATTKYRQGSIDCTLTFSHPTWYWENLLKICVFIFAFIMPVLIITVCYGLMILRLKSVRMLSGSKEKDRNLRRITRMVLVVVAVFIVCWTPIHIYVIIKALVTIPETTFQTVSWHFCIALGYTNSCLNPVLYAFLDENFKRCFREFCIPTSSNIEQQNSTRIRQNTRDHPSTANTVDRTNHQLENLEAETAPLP

In the case of `C[C@@H](NC(=O)[C@@H](N)Cc1ccc(O)cc1)C(=O)NCC(=O)N(C)[C@@H](Cc1ccccc1)C(=O)NCCO` [DAMGO, [D-Ala^2, N-Me-Phe^4, Gly^5-ol]-enkephalin], the “Imax (maximum percent inhibition of [3H]-cAMP accumulation)” value in assay [1] worked out at 88.8%. Besides, the “Hill Slope” value in assay [2] was −0.85.

Usually Ki stands for the equilibrium dissociation constant of an inhibitor or competing ligand from its target. For the molecule `Oc1ccc2c3c1O[C@H]1c4[nH]c5ccccc5c4C[C@@]4(O)[C@@H](C2)N(CC2CC2)CC[C@]314` [Naltrindole, naltrindole], the “Hill Slope” value in assay [2] is recorded as −0.99. Further, the Ki at hMOR was 6.3 nM.

As for `C=CC[N+]1(C)CC[C@]23c4c5ccc(O)c4O[C@H]2C(=O)CC[C@@]3(O)[C@H]1C5` (stereo partly shown) [naloxone methiodide], the “[3H]-naloxone radioligand binding displaced” value with mu opioid receptor was “More than 94%”.

As to `Oc1ccc2c3c1O[C@H]1c4[nH]c5c(c4C[C@@]4(O)[C@@H](C2)N(CC2CC2)CC[C@]314)C[C@@]1(O)[C@H]2Cc3ccc(O)c4c3[C@@]1(CCN2CC1CC1)[C@H]5O4` [nor-BNI, nor-binaltorphimine], the “Hill Slope” value in assay [2] is −0.99. Also, the inhibition constant (Ki) at hMOR is 21 nM.

In the case of `COC(=O)/C=C/C(=O)N[C@@H]1CC[C@@]2(O)[C@H]3Cc4ccc(O)c5c4[C@@]2(CCN3CC2CC2)[C@H]1O5` [β-FNA, β-funaltrexamine], the “Hill Slope” value in assay [2] is on record as −1.01. Also, the results for the Ki (in assay [2] (pH 7.4); on hMOR) were 1.85 nM and 0.3 nM, respectively.
